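96-well plates; 48 h exposure; 5 concentrations. Endpoints by linear interpolation between flanking doses. Not reached: highest tested concentration assigned. TGI marks complete inhibition of growth.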
Key:
Assay in all cases: NCI tumour cell line growth inhibition, 48 h
DU-145 prostate = system: DU-145 prostate
HCT-15 colon = system: HCT-15 colon
HL-60(TB) leukemia = system: HL-60(TB) leukemia
786-0 renal = system: 786-0 renal
NCI-H522 lung = system: NCI-H522 lung
RXF-631 renal = system: RXF-631 renal
SF-295 CNS = system: SF-295 CNS
HT29 colon = system: HT29 colon
HOP-18 NSCLC = system: HOP-18 NSCLC
KM20L2 colon = system: KM20L2 colon
SNB-78 CNS = system: SNB-78 CNS
SF-268 CNS = system: SF-268 CNS
SN12C renal = system: SN12C renal
A498 renal = system: A498 renal
IGROV1 ovarian = system: IGROV1 ovarian
DMS 114 small cell lung = system: DMS 114 small cell lung
SW-620 colon = system: SW-620 colon
ACHN renal = system: ACHN renal
EKVX NSCLC = system: EKVX NSCLC
KM12 colon = system: KM12 colon
HCC-2998 colon = system: HCC-2998 colon
RXF 393 renal = system: RXF 393 renal
U251 CNS = system: U251 CNS
SF-539 CNS = system: SF-539 CNS
SNB-75 CNS = system: SNB-75 CNS
BT-549 breast = system: BT-549 breast
CCRF-CEM leukemia = system: CCRF-CEM leukemia
HS 578T breast = system: HS 578T breast
SNB-19 CNS = system: SNB-19 CNS
XF 498 CNS = system: XF 498 CNS
HOP-62 NSCLC = system: HOP-62 NSCLC
OVCAR-8 ovarian = system: OVCAR-8 ovarian
M19-MEL melanoma = system: M19-MEL melanoma
SK-OV-3 ovarian = system: SK-OV-3 ovarian
CAKI-1 renal = system: CAKI-1 renal
M14 melanoma = system: M14 melanoma
T-47D breast = system: T-47D breast
NCI-H460 lung = system: NCI-H460 lung
OVCAR-5 ovarian = system: OVCAR-5 ovarian
NCI/ADR-RES ovarian = system: NCI/ADR-RES ovarian
MALME-3M melanoma = system: MALME-3M melanoma
SK-MEL-28 melanoma = system: SK-MEL-28 melanoma
MDA-MB-435 = system: MDA-MB-435
HCT-116 colon = system: HCT-116 colon
SK-MEL-5 melanoma = system: SK-MEL-5 melanoma
OVCAR-4 ovarian = system: OVCAR-4 ovarian
LXFL 529 NSCLC = system: LXFL 529 NSCLC
UO-31 renal = system: UO-31 renal
OVCAR-3 ovarian = system: OVCAR-3 ovarian
HOP-92 NSCLC = system: HOP-92 NSCLC
SR leukemia = system: SR leukemia
PC-3 prostate = system: PC-3 prostate
TK-10 renal = system: TK-10 renal
MDA-MB-231 breast = system: MDA-MB-231 breast
K-562 leukemia = system: K-562 leukemia
DMS 273 small cell lung = system: DMS 273 small cell lung
MDA-N = system: MDA-N
DLD-1 colon = system: DLD-1 colon
NCI-H226 lung = system: NCI-H226 lung
SK-MEL-2 melanoma = system: SK-MEL-2 melanoma
UACC-62 melanoma = system: UACC-62 melanoma
COLO 205 colon = system: COLO 205 colon
NCI-H23 lung = system: NCI-H23 lung
LOX IMVI melanoma = system: LOX IMVI melanoma
MCF7 breast = system: MCF7 breast
UACC-257 melanoma = system: UACC-257 melanoma
RPMI-8226 leukemia = system: RPMI-8226 leukemia
A549 NSCLC = system: A549 NSCLC

SMILES: Nc1ccc(S(=O)(=O)Nc2ccc(Nc3c4ccccc4nc4ccccc34)cc2)cc1
- TGI (DU-145 prostate): 0.0188 µM
- TGI (HCT-15 colon): 17.7 µM
- TGI (HL-60(TB) leukemia): 0.183 µM
- TGI (786-0 renal): 0.352 µM
- TGI (NCI-H522 lung): 3.95 µM
- TGI (RXF-631 renal): 10.8 µM
- TGI (SF-295 CNS): 1.03 µM
- TGI (HT29 colon): 5.4 µM
- TGI (HOP-18 NSCLC): 16.1 µM
- TGI (KM20L2 colon): 10.6 µM
- TGI (SNB-78 CNS): 26.2 µM
- TGI (SF-268 CNS): 13.8 µM
- TGI (SN12C renal): 0.628 µM
- TGI (A498 renal): 1.14 µM
- TGI (IGROV1 ovarian): 19.7 µM
- TGI (DMS 114 small cell lung): 1.9 µM
- TGI (SW-620 colon): 14.3 µM
- TGI (ACHN renal): 0.149 µM
- TGI (EKVX NSCLC): 14.7 µM
- TGI (KM12 colon): 4.59 µM
- TGI (HCC-2998 colon): 8.2 µM
- TGI (RXF 393 renal): 13.7 µM
- TGI (U251 CNS): 4.94 µM
- TGI (SF-539 CNS): 0.362 µM
- TGI (SNB-75 CNS): 0.963 µM
- TGI (BT-549 breast): 0.981 µM
- TGI (CCRF-CEM leukemia): > 4.64 µM
- TGI (HS 578T breast): 54.7 µM
- TGI (SNB-19 CNS): 9.54 µM
- TGI (XF 498 CNS): 20.6 µM
- TGI (HOP-62 NSCLC): 0.0805 µM
- TGI (OVCAR-8 ovarian): 10 µM
- TGI (M19-MEL melanoma): 21.1 µM
- TGI (SK-OV-3 ovarian): 0.501 µM
- TGI (CAKI-1 renal): 0.517 µM
- TGI (M14 melanoma): 17.5 µM
- TGI (T-47D breast): 31.5 µM
- TGI (NCI-H460 lung): 2.11 µM
- TGI (OVCAR-5 ovarian): 12.9 µM
- TGI (NCI/ADR-RES ovarian): 19.8 µM
- TGI (MALME-3M melanoma): 10.8 µM
- TGI (SK-MEL-28 melanoma): 20.8 µM
- TGI (MDA-MB-435): 53 µM
- TGI (HCT-116 colon): 15.6 µM
- TGI (SK-MEL-5 melanoma): 2 µM
- TGI (OVCAR-4 ovarian): 17.1 µM
- TGI (LXFL 529 NSCLC): 20.6 µM
- TGI (UO-31 renal): 4.24 µM
- TGI (OVCAR-3 ovarian): 4.57 µM
- TGI (HOP-92 NSCLC): 4.84 µM
- TGI (SR leukemia): 0.533 µM
- TGI (PC-3 prostate): 17.4 µM
- TGI (TK-10 renal): 9.55 µM
- TGI (MDA-MB-231 breast): 22.1 µM
- TGI (K-562 leukemia): 17 µM
- TGI (DMS 273 small cell lung): 3.08 µM
- TGI (MDA-N): 22.8 µM
- TGI (DLD-1 colon): 16.6 µM
- TGI (NCI-H226 lung): 0.851 µM
- TGI (SK-MEL-2 melanoma): 15.9 µM
- TGI (UACC-62 melanoma): 3.66 µM
- TGI (COLO 205 colon): 14.9 µM
- TGI (NCI-H23 lung): 0.732 µM
- TGI (LOX IMVI melanoma): 1.51 µM
- TGI (MCF7 breast): 16 µM
- TGI (UACC-257 melanoma): 20.2 µM
- TGI (RPMI-8226 leukemia): 4.06 µM
- TGI (A549 NSCLC): 0.919 µM
